In ChEMBL document CHEMBL1158961, “Picrasinoside H, a new quassinoid glucoside, and related compounds from the stem wood of Picrasma ailanthoides” (1991):

Assays:
Type in all cases: functional
Conditions in all cases: read-out: ED50 (the source's name)
KB = assay: Cytotoxicity against human KB cells
TE-671 = assay: Cytotoxicity against human TE671 cells
A549 = assay: Cytotoxicity against human A549 cells
HCT-8 = assay: Cytotoxicity against human HCT8 cells
[1] = Cytotoxicity against human RPMI cells
P388 = assay: Cytotoxicity against mouse P388 cells

Measured: EC50

COC1=C[C@@H](C)[C@@H]2C[C@H]3O[C@@H](O[C@@H]4O[C@H](CO)[C@@H](O)[C@H](O)[C@H]4O)C[C@H]4C(C)=C(OC)C(=O)[C@H]([C@@]2(C)C1=O)[C@@]34C [PICRASINOSIDE B]
≤ 4 µg/mL: all assays above

COC1=C[C@@H](C)C2C[C@H]3O[C@@H](O[C@@H]4O[C@H](CO)[C@@H](O)[C@H](O)[C@H]4O)C[C@H]4[C@@H](C)[C@@H]5OCO[C@H]5[C@@H]([C@@]34C)[C@@]2(C)C1=O (stereo not given in full) [PICRASINOSIDE C]
≤ 4 µg/mL: all assays above

COC1=C[C@@H](C)[C@@H]2C[C@H]3O[C@@H](O[C@@H]4O[C@H](CO)[C@@H](O)[C@H](O)[C@H]4O)C[C@H]4[C@@H](C)[C@H](OC)[C@@H](OC(C)=O)[C@H]([C@@]2(C)C1=O)[C@@]34C [PICRASINOSIDE D]
≤ 4 µg/mL: all assays above

COC1=C[C@@H](C)[C@@H]2C[C@H]3O[C@@H](O[C@@H]4O[C@H](CO)[C@@H](O)[C@H](O)[C@H]4O)C[C@H]4[C@](C)(O)[C@H](OC)[C@@H](OC(C)=O)[C@H]([C@@]2(C)C1=O)[C@@]34C [PICRASINOSIDE E]
≤ 4 µg/mL: all assays above

COC1=C[C@@H](C)[C@@H]2C[C@H]3O[C@@H](O[C@@H]4O[C@H](CO)[C@@H](O)[C@H](O)[C@H]4O)C[C@H]4[C@](C)(O)[C@H](OC)[C@@H](O)[C@H]([C@@]2(C)C1=O)[C@@]34C [PICRASINOSIDE G]
not listed: TE-671
≤ 4 µg/mL: all other assays above

COC1=C[C@@H](C)[C@@H]2C[C@H]3O[C@@H](O[C@@H]4O[C@H](CO)[C@@H](O)[C@H](O)[C@H]4O)C[C@H]4[C@](C)(OC(C)=O)[C@@H]5OCO[C@H]5[C@H]([C@@]2(C)C1=O)[C@@]34C [PICRASINOSIDE H]
≤ 4 µg/mL: all assays above
